Patent US4636500A, “N-(phenoxyalkyl)imidazoles as selective inhibitors of the thromboxane synthetase enzyme and pharmaceutical compositions thereof” (Pfizer Inc., priority 1978, dated 1987)
Counter-ions that a name gives are not always drawn.

Key:
[1] = molecular target: T1, thromboxane synthetase (Homo sapiens, UniProt P24557); assay: Thromboxane A2 (TxA2) synthetase inhibition; Indomethacin pretreated human platelet microsomes, rabbit aorta superfusion bioassay; type: biochemical; conditions: for IC50: human platelet microsomes, 5 min pre-incubation, read-out: Molar concentration causing 50% inhibition of (1) thromboxane synthetase; for Ratio of (3) to (1): prostacyclin synthetase / thromboxane synthetase 50% inhibition concentrations
T1 construct: human platelet microsomes; from tissue; host or cells: human blood platelets (indomethacin-pretreated), microsomes
T1 sequence (P24557 1-533): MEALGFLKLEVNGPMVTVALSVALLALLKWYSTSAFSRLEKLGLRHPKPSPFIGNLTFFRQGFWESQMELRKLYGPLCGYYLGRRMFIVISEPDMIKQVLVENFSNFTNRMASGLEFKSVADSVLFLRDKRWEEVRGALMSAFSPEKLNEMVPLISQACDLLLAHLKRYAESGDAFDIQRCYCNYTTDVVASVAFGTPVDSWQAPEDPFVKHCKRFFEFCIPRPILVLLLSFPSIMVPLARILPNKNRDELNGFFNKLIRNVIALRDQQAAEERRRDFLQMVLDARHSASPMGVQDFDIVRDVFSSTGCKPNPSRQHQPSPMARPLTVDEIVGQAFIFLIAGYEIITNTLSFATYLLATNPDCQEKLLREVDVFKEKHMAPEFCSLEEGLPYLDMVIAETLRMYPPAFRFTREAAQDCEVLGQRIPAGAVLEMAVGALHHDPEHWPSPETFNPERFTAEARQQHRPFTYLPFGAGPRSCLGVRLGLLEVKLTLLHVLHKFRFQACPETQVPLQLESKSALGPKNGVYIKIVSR
Description: Indomethacin pretreated human platelet microsomes (Science 1976, 193, 163) are incubated (2 min.: 0° C.) with PGH2 (produced as in 1) and aliquots of the reaction mixture superfused over two rabbit aorta spirals which are separated by a delay coil (2 min.). The latter is required to allow the selective decay of the more unstable thromboxane A2 (Proc. Nat. Acad. Sci. 1975, 72, 2994) thereby enabling the separate measurement of increased isometric tension due to the TxA2 formed and the PGH2 remaining. The test compound is pre-incubated with the enzyme for 5 minutes, and its ability to inhibit the thromboxane synthetase enzyme is measured as its reduction of the TxA2 component of the isometric tension.

[2] = molecular target: T2, prostacyclin synthetase (Sus scrofa, UniProt A0A5G2QT35); assay: Prostacyclin (PGI2) synthetase inhibition; pig aorta microsomes, rabbit aorta strip bioassay; type: biochemical; conditions: 5 min pre-incubation, read-out: Molar concentration causing 50% inhibition of (3) prostacyclin synthetase
T2 construct: Pig aorta microsomes; from tissue; host or cells: pig aorta microsomes
T2 sequence (A0A5G2QT35 1-497): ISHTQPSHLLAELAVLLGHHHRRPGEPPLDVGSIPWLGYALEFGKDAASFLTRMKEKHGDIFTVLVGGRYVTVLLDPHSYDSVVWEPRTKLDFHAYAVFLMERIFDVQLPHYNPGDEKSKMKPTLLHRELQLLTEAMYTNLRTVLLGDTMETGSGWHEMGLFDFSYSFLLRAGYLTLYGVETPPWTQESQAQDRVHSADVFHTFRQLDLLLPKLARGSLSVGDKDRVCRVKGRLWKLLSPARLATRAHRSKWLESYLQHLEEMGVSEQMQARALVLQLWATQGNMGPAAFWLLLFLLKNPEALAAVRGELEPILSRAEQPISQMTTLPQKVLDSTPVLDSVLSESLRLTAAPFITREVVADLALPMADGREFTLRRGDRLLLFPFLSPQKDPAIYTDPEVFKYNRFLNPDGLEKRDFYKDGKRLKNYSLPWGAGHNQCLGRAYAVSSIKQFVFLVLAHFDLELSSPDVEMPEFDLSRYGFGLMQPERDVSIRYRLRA
Description: The effect of the compounds of the formula (I) on the thromboxane synthetase enzyme, and the prostacyclin synthetase and cyclo-oxygenase enzymes has been measured by the following in vitro enzyme assays:
Pig aorta microsomes (Nature, 1976, 263, 663) are incubated (30 sec.; 22° C.) with PGH2 produced as in 1) and aliquots bio-assayed as in 1. […] The test compound is then pre-incubated with the enzyme for 5 minutes, and its ability to prevent the decrease in tension is measured.
The results of these tests are shown in the following Table, which gives the molar concentration of each compound which caused a 50% change in the effect of the relevant enzyme on isometric tension, i.e. caused a 50% inhibition of the action of that enzyme.

[3] = system: human blood platelet aggregation; conditions: human blood platelets; literature; cited from earlier work
[4] = system: aggregation of platelets; conditions: rat abdominal aorta, in vivo; literature; cited from earlier work
[5] = system: rabbits; conditions: intravenous arachidonic acid, literature; cited from earlier work
[6] = system: human blood platelet aggregation; assay: in vitro inhibition of human blood platelet aggregation; type: cell-based; conditions: human platelets, qualitative
Text: In addition to the above as in vitro assay for measuring the inhibition of human blood platelet aggregation has been described and this may be predictive of anti-thrombotic efficacy clinically (Lancet (ii), 1974, 1223; J. Exp. Med., 1967, 126, 171).

[7] = molecular target: T3, cyclo-oxygenase (Ovis aries, UniProt P05979); assay: Cyclo-oxygenase inhibition; ram seminal vesicle microsomes, rabbit aorta strip bioassay; type: biochemical; conditions: 5 min pre-incubation, read-out: Molar concentration causing 50% inhibition of (2) cyclo-oxygenase
T3 construct: Ram seminal vesicle microsomes; from tissue; host or cells: ram seminal vesicle microsomes
T3 sequence (P05979 25-600): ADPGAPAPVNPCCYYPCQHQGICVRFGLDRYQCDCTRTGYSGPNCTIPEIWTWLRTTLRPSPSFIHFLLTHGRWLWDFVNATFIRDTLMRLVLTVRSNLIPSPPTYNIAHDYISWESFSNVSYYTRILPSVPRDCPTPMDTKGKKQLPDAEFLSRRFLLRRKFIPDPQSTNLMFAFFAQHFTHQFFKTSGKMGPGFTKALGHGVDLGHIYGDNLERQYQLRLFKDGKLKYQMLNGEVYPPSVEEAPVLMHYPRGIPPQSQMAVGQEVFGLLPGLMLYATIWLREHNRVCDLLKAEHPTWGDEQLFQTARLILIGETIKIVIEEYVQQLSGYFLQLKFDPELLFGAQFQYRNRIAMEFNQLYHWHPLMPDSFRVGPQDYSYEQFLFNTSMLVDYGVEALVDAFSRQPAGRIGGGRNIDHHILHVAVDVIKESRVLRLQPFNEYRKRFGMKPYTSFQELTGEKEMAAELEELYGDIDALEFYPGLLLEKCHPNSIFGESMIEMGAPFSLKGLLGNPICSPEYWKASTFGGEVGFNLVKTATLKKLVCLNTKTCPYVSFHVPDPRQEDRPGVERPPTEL
Description: Ram seminal vesicle microsomes(Biochemistry, 1971, 10, 2372) are incubated with arachidonic acid (100 μM: 1 min.: 22°) to produce PGH2 and aliquots of the reaction mixture injected into a stream of Krebs-bicarbonate at 37° C. (containing a mixture of antagonists (Nature, […], 218, 1135) and indomethacin (Brit. J. Pharmacol., 1972, 45, 451) which is superfusing a spirally-cut rabbit aorta strip (Nature, 1969, 223, 29). The ability of a compound to inhibit the enzyme is measured by comparing the increases in isometric tension produced by PGH2 in the absence of the test compound, and following pre-incubation of the enzyme with the test compound for 5 minutes.

[8] = system: cyclo-oxygenase enzyme; conditions: background statement; cited from earlier work
[9] = molecular target: T2, prostacyclin synthetase; conditions: pig aorta microsomes; pre-incubation of the enzyme; literature; cited from earlier work

Row | SMILES | IC50 [1] [nM] | Ratio of (3) to (1) [1] | IC50 [2] [nM] | also measured
1 | CCOC(=O)Cc1cccc(OCCn2ccnc2)c1 [Example 7] | 46 | 2,200 | 100000 | 
2 | O=C1C(CC[S+]([O-])c2ccccc2)C(=O)N(c2ccccc2)N1c1ccccc1 (stereo not shown) [sulphinpyrazone] |  |  |  | inhibitory activity in vitro against a variety of aggregating agents [3]: show inhibitory activity in vitro against a variety of aggregating agents; prevent the aggregation of platelets in an extra corporeal loop [4]: prevent the aggregation of platelets in an extra corporeal loop of the abdominal aorta of rats in vivo; protect the rabbit from the lethal effect of the injection [5]: protect the rabbit from the lethal effect of the injection
3 | NC(=O)c1ccccc1OCCn1ccnc1 [Example 2] | 10000 |  |  | 
4 | O=C(O)c1ccc(OCCn2ccnc2)cc1 [Example 16, 1-[2-(4-Carboxyphenoxy)ethyl]imidazole] |  |  | > 100000 | preventing human blood platelet aggregation [6]: effective in preventing human blood platelet aggregation
5 | NC(=O)c1ccc(OCCn2ccnc2)cc1 [Example 1, 1-[2-(4-Carbamoylphenoxy)ethyl]imidazole] | 22 | > 4,500 | > 100000 | IC50 [7]: > 100000 nM
6 | CCOC(=O)c1ccccc1OCCn1ccnc1 [Example 4, 1-[2-(2-ethoxycarbonyl-phenoxy)ethyl]imidazole] | 40 | > 2,500 | > 100000 | 
7 | CC(=O)Oc1ccccc1C(=O)O [aspirin] |  |  |  | inhibitory activity in vitro against a variety of aggregating agents [3]: show inhibitory activity in vitro against a variety of aggregating agents; protect the rabbit from the lethal effect of the injection [5]: protect the rabbit from the lethal effect of the injection; inhibition of the cyclo-oxygenase enzyme [8]: inhibit the cyclo-oxygenase enzyme
8 | NC(=O)Cc1ccc(OCCn2ccnc2)cc1 [Example 3] | 1000 |  |  | 
9 | CCCCCC(/C=C/C=C\C/C=C\C/C=C\CCCC(=O)O)OO (stereo not shown) [15-hydroperoxy-arachidonic acid] |  |  |  | prevention of the decrease in PGH2-induced tension (PGI2 synthetase inhibition) [9]: prevented completely

Further lines, with some results ahead:

Row | IC50 [1] [nM] | Ratio of (3) to (1) [1] | IC50 [2] [nM] | SMILES | also measured
10 | 16 |  |  | NC(=O)COc1ccc(OCCn2ccnc2)cc1 [Example 23, 4-[2-(1-Imidazolyl)ethoxy]phenoxyacetamide] | 
11 | 34000 |  |  | O=C(O)c1ccccc1OCCn1ccnc1 [Example 17, 1-[2-(2-Carboxyphenoxy)ethyl]imidazole Hydrochloride] | 
12 | 4.2 |  |  | O=C(O)COc1ccc(OCCn2ccnc2)cc1 [Example 18, 4-[2-(1-Imidazolyl)ethoxy]phenoxyacetic acid Hydrochloride] | 
13 | 580 |  |  | O=C(O)Cc1ccccc1OCCn1ccnc1 [Example 19, 2-[2-(1-Imidazolyl)ethoxy]phenylacetic acid Hydrochloride] | 
14 | 4.9 |  |  | c1cn(CCOc2ccc(-c3nnn[nH]3)cc2)cn1 [Example 22, 1-[2-(4-Tetrazol-5-ylphenoxy)ethyl]imidazole] | 
15 | 5 | > 20,000 | > 100000 | CNC(=O)c1ccc(OCCn2ccnc2)cc1 [Example 24, 1-[2-(4-N-Methylcarbamoylphenoxy)ethyl]imidazole] | IC50 [7]: > 100000 nM
16 | 6600 |  |  | NC(=O)Cc1ccccc1OCCn1ccnc1 [Example 39, 1-[2-(2-Carbamoylmethylphenoxy)ethyl]imidazole] | 
17 | 34 | > 2,900 | > 100000 | CCOC(=O)Cc1ccc(OCCn2ccnc2)cc1 [Example 8] | 
18 | 12 |  |  | O=C(O)c1cccc(OCCn2ccnc2)c1 [Example 21, 1-[2-(3-Carboxyphenoxy)ethyl]imidazole Hydrochloride] | 
19 | 5.6 | > 18,000 | > 100000 | CN(C)C(=O)c1ccc(OCCn2ccnc2)cc1 [Example 25, 1-[2-(4-N,N-Dimethylcarbamoylphenoxy)ethyl]imidazole] | IC50 [7]: > 100000 nM
20 | 10000 |  |  | O=C(c1ccc(OCCn2ccnc2)cc1)N1CCOCC1 [Example 26, 1-[4-(2-Imidazol-1-yl)ethoxybenzoyl]morpholine] | 
